Measured values reported in article PMC5218480 (PLoS ONE, 2017).

Test system: MV-4-11 cells
Experiment: Gene expression microarray analysis (Affymetrix PrimeView) and GSEA
Assay type: cell-based, human
Design: RFU PODN (11730768_x_at) / Fold change /veh PODN (11730768_x_at) / RFU LINC00158 (11744669_a_at) / Fold change /veh LINC00158 (11744669_a_at) / RFU DUSP10 (11751237_a_at) / Fold change /veh DUSP10 (11751237_a_at) / RFU ID3 (11757404_x_at) / Fold change /veh ID3 (11757404_x_at) / RFU PLEKHG5 (11737974_s_at) / Fold change /veh PLEKHG5 (11737974_s_at) / RFU LRRC4B (11730491_at) / Fold change /veh LRRC4B (11730491_at) / RFU GIMAP4 (11747438_a_at) / Fold change /veh GIMAP4 (11747438_a_at) / RFU KRT8 (11758183_x_at) / Fold change /veh KRT8 (11758183_x_at) / RFU CNN1 (11734310_a_at) / Fold change /veh CNN1 (11734310_a_at) / RFU VPS37D (11726825_at) / Fold change /veh VPS37D (11726825_at) / RFU C10orf10 (11716522_x_at) / Fold change /veh C10orf10 (11716522_x_at) / RFU KIR2DL2 /// KIR2DL4 /// KIR2DL5A /// KIR2DL5B /// KIR2DS1 /// KIR2DS2 /// KIR2DS3 /// KIR2DS4 /// KIR3DL3 /// KIR3DL3 /// KIR3DS1 (11738374_at) / Fold change /veh KIR2DL2 /// KIR2DL4 /// KIR2DL5A /// KIR2DL5B /// KIR2DS1 /// KIR2DS2 /// KIR2DS3 /// KIR2DS4 /// KIR3DL3 /// KIR3DL3 /// KIR3DS1 (11738374_at) / RFU C1QL1 (11718748_at) / Fold change /veh C1QL1 (11718748_at) / RFU TMPRSS4 (11747572_a_at) / Fold change /veh TMPRSS4 (11747572_a_at) / RFU HAMP (11756126_x_at) / Fold change /veh HAMP (11756126_x_at) / RFU RNFT2 (11725882_a_at) / Fold change /veh RNFT2 (11725882_a_at) / RFU NR4A2 (11747474_a_at) / Fold change /veh NR4A2 (11747474_a_at) / RFU ABCC12 (11746883_a_at) / Fold change /veh ABCC12 (11746883_a_at) / RFU TMEM136 (11760407_x_at) / Fold change /veh TMEM136 (11760407_x_at) / RFU CLDN22 /// WWC2 (11732394_at) / Fold change /veh CLDN22 /// WWC2 (11732394_at) / RFU HLA-DPB1 (11760878_x_at) / Fold change /veh HLA-DPB1 (11760878_x_at) / RFU SPINT1 (11716480_a_at) / Fold change /veh SPINT1 (11716480_a_at) / RFU GAP43 (11754022_s_at) / Fold change /veh GAP43 (11754022_s_at) / RFU A4GNT (11735810_at) / Fold change /veh A4GNT (11735810_at) / RFU PRB3 (11715151_x_at) / Fold change /veh PRB3 (11715151_x_at) / RFU TUBB4B (11761932_at) / Fold change /veh TUBB4B (11761932_at) / RFU CAPN14 (11732068_a_at) / Fold change /veh CAPN14 (11732068_a_at) / RFU TMCC2 (11721928_a_at) / Fold change /veh TMCC2 (11721928_a_at) / RFU IRGQ (11745062_a_at) / Fold change /veh IRGQ (11745062_a_at) / RFU FAM174B (11720279_a_at) / Fold change /veh FAM174B (11720279_a_at) / RFU TMPRSS4 (11748680_a_at) / Fold change /veh TMPRSS4 (11748680_a_at) / RFU FAM212B (11763350_a_at) / Fold change /veh FAM212B (11763350_a_at) / RFU PLEKHG5 (11743358_a_at) / Fold change /veh PLEKHG5 (11743358_a_at) / RFU ZSCAN30 (11745921_a_at) / Fold change /veh ZSCAN30 (11745921_a_at) / RFU CMKLR1 (11741424_a_at) / Fold change /veh CMKLR1 (11741424_a_at) / RFU LOC101060620 /// MAPK8IP1 (11723275_at) / Fold change /veh LOC101060620 /// MAPK8IP1 (11723275_at) / RFU SPTSSB (11747773_x_at) / Fold change /veh SPTSSB (11747773_x_at) / RFU PRSS12 (11739890_at) / Fold change /veh PRSS12 (11739890_at) / RFU BIN1 (11741810_x_at) / Fold change /veh BIN1 (11741810_x_at) / RFU WNT11 (11732464_a_at) / Fold change /veh WNT11 (11732464_a_at) / RFU C10orf10 (11716521_a_at) / Fold change /veh C10orf10 (11716521_a_at) / RFU C5orf56 (11738089_at) / Fold change /veh C5orf56 (11738089_at) / RFU CYB561 (11721691_x_at) / Fold change /veh CYB561 (11721691_x_at) / RFU ANKRD19P (11752326_a_at) / Fold change /veh ANKRD19P (11752326_a_at) / RFU OR2T12 /// OR2T33 /// OR2T8 (11738714_s_at) / Fold change /veh OR2T12 /// OR2T33 /// OR2T8 (11738714_s_at) / RFU VCAN (11748164_a_at) / Fold change /veh VCAN (11748164_a_at) / RFU JSRP1 (11732532_at) / Fold change /veh JSRP1 (11732532_at) / RFU KRTAP10-11 (11738290_x_at) / Fold change /veh KRTAP10-11 (11738290_x_at) / RFU MYO3A (11730013_a_at) / Fold change /veh MYO3A (11730013_a_at) / RFU EBF3 (11725865_a_at) / Fold change /veh EBF3 (11725865_a_at) / RFU CAMK2N1 (11719241_x_at) / Fold change /veh CAMK2N1 (11719241_x_at) / RFU C5orf56 (11738088_a_at) / Fold change /veh C5orf56 (11738088_a_at) / RFU OLFML3 (11715873_a_at) / Fold change /veh OLFML3 (11715873_a_at) / RFU LOC100653217 /// NTM (11731650_a_at) / Fold change /veh LOC100653217 /// NTM (11731650_a_at) / RFU MAPK11 (11762145_a_at) / Fold change /veh MAPK11 (11762145_a_at) / RFU FIZ1 (11724087_x_at) / Fold change /veh FIZ1 (11724087_x_at) / RFU OASL (11726364_x_at) / Fold change /veh OASL (11726364_x_at) / RFU SOX15 (11748057_x_at) / Fold change /veh SOX15 (11748057_x_at) / RFU CD79A (11719716_a_at) / Fold change /veh CD79A (11719716_a_at) / RFU HIST1H1D (11736915_at) / Fold change /veh HIST1H1D (11736915_at) / RFU CASKIN2 (11723855_a_at) / Fold change /veh CASKIN2 (11723855_a_at) / RFU LOC730098 (11760151_x_at) / Fold change /veh LOC730098 (11760151_x_at) / RFU OR4N2 (11742367_at) / Fold change /veh OR4N2 (11742367_at) / RFU PRRT2 (11749266_a_at) / Fold change /veh PRRT2 (11749266_a_at) / RFU SNX32 (11753110_a_at) / Fold change /veh SNX32 (11753110_a_at) / RFU CDHR5 (11726645_a_at) / Fold change /veh CDHR5 (11726645_a_at) / RFU RCAN1 (11760418_a_at) / Fold change /veh RCAN1 (11760418_a_at) / RFU FAM167A (11723789_a_at) / Fold change /veh FAM167A (11723789_a_at) / RFU FAM26E (11764081_at) / Fold change /veh FAM26E (11764081_at) / RFU ISYNA1 (11749810_s_at) / Fold change /veh ISYNA1 (11749810_s_at) / RFU ACY1 (11761880_at) / Fold change /veh ACY1 (11761880_at) / RFU 11764098_at / Fold change /veh 11764098_at / RFU SAMD14 (11745864_x_at) / Fold change /veh SAMD14 (11745864_x_at) / RFU NPB (11741838_a_at) / Fold change /veh NPB (11741838_a_at) / RFU TMPRSS6 (11731388_a_at) / Fold change /veh TMPRSS6 (11731388_a_at) / RFU KRTAP10-2 (11738614_at) / Fold change /veh KRTAP10-2 (11738614_at) / RFU ARHGAP8 /// PRR5-ARHGAP8 (11727945_x_at) / Fold change /veh ARHGAP8 /// PRR5-ARHGAP8 (11727945_x_at) / RFU KRTAP5-7 /// NADSYN1 (11734609_at) / Fold change /veh KRTAP5-7 /// NADSYN1 (11734609_at) / RFU RASL12 (11751679_a_at) / Fold change /veh RASL12 (11751679_a_at) / RFU CDKN2B (11736163_a_at) / Fold change /veh CDKN2B (11736163_a_at) / RFU PRF1 (11729649_at) / Fold change /veh PRF1 (11729649_at) / RFU, ZNF638 /// ZNF638-IT1 / Fold change vs veh, ZNF638 /// ZNF638-IT1 / RFU, PANK3 / Fold change vs veh, PANK3 / RFU, SH3YL1 / Fold change vs veh, SH3YL1 / RFU, ZEB2 / Fold change vs veh, ZEB2 / RFU, NRIP1 / Fold change vs veh, NRIP1 / RFU, PTTG1IP / Fold change vs veh, PTTG1IP / RFU, CAPN2 / Fold change vs veh, CAPN2 / RFU, MED14 / Fold change vs veh, MED14 / RFU, SNORA58 / Fold change vs veh, SNORA58 / RFU, C1orf63 / Fold change vs veh, C1orf63 / RFU, LRRFIP1 / Fold change vs veh, LRRFIP1 / RFU, NDUFAF7 / Fold change vs veh, NDUFAF7 / RFU, SLC12A2 / Fold change vs veh, SLC12A2 / RFU, IBTK / Fold change vs veh, IBTK / RFU, ESF1 / Fold change vs veh, ESF1 / Fold change vs veh, TMEM50B / RFU, TAOK1 / Fold change vs veh, TAOK1 / RFU, ACBD3 / Fold change vs veh, ACBD3 / RFU, TMA16 / Fold change vs veh, TMA16 / RFU, RWDD3 / Fold change vs veh, RWDD3 / RFU, BCAT1 / Fold change vs veh, BCAT1 / RFU, EDEM3 / Fold change vs veh, EDEM3 / RFU, TMEM33 / Fold change vs veh, TMEM33 / RFU, WDR75 / Fold change vs veh, WDR75 / RFU, AHCTF1 / Fold change vs veh, AHCTF1 / RFU, TFRC / Fold change vs veh, TFRC / RFU, ZDHHC17 / Fold change vs veh, ZDHHC17 / RFU, NOM1 / Fold change vs veh, NOM1 / RFU, ARL8B / Fold change vs veh, ARL8B / RFU, ZBTB11 / Fold change vs veh, ZBTB11 / RFU, TAMM41 / Fold change vs veh, TAMM41 / RFU, KIAA1704 /// LOC100996395 / Fold change vs veh, KIAA1704 /// LOC100996395 / RFU, ING1 / Fold change vs veh, ING1 / RFU, TRMT61B / Fold change vs veh, TRMT61B / RFU, FUBP3 / Fold change vs veh, FUBP3 / RFU, TP53 / Fold change vs veh, TP53 / RFU, TNKS2 / Fold change vs veh, TNKS2 / RFU, ZFP14 / Fold change vs veh, ZFP14 / RFU, ACTR2 / Fold change vs veh, ACTR2 / RFU, PPP3R1 / Fold change vs veh, PPP3R1 / RFU, PIK3R1 / Fold change vs veh, PIK3R1 / RFU, HNRNPA1 / Fold change vs veh, HNRNPA1 / RFU, RNF170 / Fold change vs veh, RNF170 / RFU, ZNF28 / Fold change vs veh, ZNF28 / RFU, RNGTT / Fold change vs veh, RNGTT / RFU, OGT / Fold change vs veh, OGT / RFU, BRD1 / Fold change vs veh, BRD1 / RFU, MARS / Fold change vs veh, MARS / RFU, ZNF655 / Fold change vs veh, ZNF655 / RFU, FAHD1 / Fold change vs veh, FAHD1 / RFU, BDP1 / Fold change vs veh, BDP1 / RFU, LRRCC1 / Fold change vs veh, LRRCC1 / RFU, ARID1A / Fold change vs veh, ARID1A / RFU, ZNF146 / Fold change vs veh, ZNF146 / RFU, ZNF330 / Fold change vs veh, ZNF330 / RFU, GPN3 / Fold change vs veh, GPN3 / RFU, C9orf123 / Fold change vs veh, C9orf123 / RFU, N4BP2L2 / Fold change vs veh, N4BP2L2 / RFU, ARFIP1 / Fold change vs veh, ARFIP1 / RFU, FAM179B / Fold change vs veh, FAM179B / RFU, BCL10 / Fold change vs veh, BCL10 / RFU, UHRF1BP1L / Fold change vs veh, UHRF1BP1L / RFU, BET1 / Fold change vs veh, BET1 / RFU, CNOT2 / Fold change vs veh, CNOT2 / RFU, ZNF268 / Fold change vs veh, ZNF268 / Fold change vs veh, ZNF507 / RFU, DGCR2 / Fold change vs veh, DGCR2 / RFU, WDSUB1 / Fold change vs veh, WDSUB1 / Fold change vs veh, HSP90B1 /// MIR3652 / RFU, ADSS / Fold change vs veh, ADSS / RFU, GK / Fold change vs veh, GK / RFU, ZNF148 / Fold change vs veh, ZNF148 / RFU, TAF9 / Fold change vs veh, TAF9 / RFU, SLC1A5 / Fold change vs veh, SLC1A5 / RFU, SLMO2 / Fold change vs veh, SLMO2 / RFU, ABCC4 / Fold change vs veh, ABCC4 / RFU, LOC101060439 /// RAP1B / Fold change vs veh, LOC101060439 /// RAP1B / RFU, RFX7 / Fold change vs veh, RFX7 / RFU, GTPBP10 / Fold change vs veh, GTPBP10 / RFU, CNEP1R1 / Fold change vs veh, CNEP1R1 / RFU, BIVM-ERCC5 /// ERCC5 / Fold change vs veh, BIVM-ERCC5 /// ERCC5 / RFU, ILF3 / Fold change vs veh, ILF3 / RFU 11762660_at / Fold change /veh 11762660_at / RFU VCAN (11757783_s_at) / Fold change /veh VCAN (11757783_s_at) / RFU DDX43 (11728927_at) / Fold change /veh DDX43 (11728927_at) / RFU KRT8 (11758188_x_at) / Fold change /veh KRT8 (11758188_x_at) / RFU NKD1 (11759106_at) / Fold change /veh NKD1 (11759106_at) / RFU SRD5A1 (11742802_a_at) / Fold change /veh SRD5A1 (11742802_a_at) / RFU TPSAB1 /// TPSB2 (11721975_s_at) / Fold change /veh TPSAB1 /// TPSB2 (11721975_s_at) / RFU GSTM3 (11746129_a_at) / Fold change /veh GSTM3 (11746129_a_at) / RFU IL23R (11737362_x_at) / Fold change /veh IL23R (11737362_x_at) / RFU TMEM51 (11727254_a_at) / Fold change /veh TMEM51 (11727254_a_at) / RFU PIWIL2 (11732686_x_at) / Fold change /veh PIWIL2 (11732686_x_at) / RFU ORM1 (11744905_x_at) / Fold change /veh ORM1 (11744905_x_at) / RFU CCDC152 (11743942_at) / Fold change /veh CCDC152 (11743942_at) / RFU ECM1 (11717891_a_at) / Fold change /veh ECM1 (11717891_a_at) / RFU IL23R (11748794_a_at) / Fold change /veh IL23R (11748794_a_at) / RFU TNFAIP8L3 (11732012_x_at) / Fold change /veh TNFAIP8L3 (11732012_x_at) / RFU MBOAT4 (11741988_at) / Fold change /veh MBOAT4 (11741988_at) / RFU 11764193_at / Fold change /veh 11764193_at / RFU TMEM53 (11763286_at) / Fold change /veh TMEM53 (11763286_at) / RFU MAGEB2 (11727129_at) / Fold change /veh MAGEB2 (11727129_at) / RFU TMEM200A (11744735_a_at) / Fold change /veh TMEM200A (11744735_a_at) / RFU CCDC152 (11751479_a_at) / Fold change /veh CCDC152 (11751479_a_at) / RFU FAM211A (11726209_a_at) / Fold change /veh FAM211A (11726209_a_at) / RFU RGS16 (11746705_a_at) / Fold change /veh RGS16 (11746705_a_at) / RFU VCAN (11755009_s_at) / Fold change /veh VCAN (11755009_s_at) / RFU RHOB (11743442_s_at) / Fold change /veh RHOB (11743442_s_at) / RFU RGS16 (11720943_a_at) / Fold change /veh RGS16 (11720943_a_at) / RFU RGS16 (11720944_at) / Fold change /veh RGS16 (11720944_at) / RFU, VPS4B / Fold change vs veh, VPS4B / RFU, CREB1 / Fold change vs veh, CREB1 / RFU, DNAJC13 / Fold change vs veh, DNAJC13 / RFU, GNAQ / Fold change vs veh, GNAQ / RFU, CDK5R1 / Fold change vs veh, CDK5R1 / RFU, ZRANB3 / Fold change vs veh, ZRANB3 / RFU, CUL4A / Fold change vs veh, CUL4A / RFU, CCNY / Fold change vs veh, CCNY / RFU, UFL1 / Fold change vs veh, UFL1 / RFU, COG3 / Fold change vs veh, COG3 / RFU, DIAPH2 / Fold change vs veh, DIAPH2 / RFU, SKA2 / Fold change vs veh, SKA2 / RFU, AFF3 / Fold change vs veh, AFF3 / RFU, LMF1 / Fold change vs veh, LMF1 / RFU, IPO11 / Fold change vs veh, IPO11 / RFU, DFFB / Fold change vs veh, DFFB / RFU, FOXP1 / Fold change vs veh, FOXP1 / RFU, CARD8 / Fold change vs veh, CARD8 / RFU, STRN3 / Fold change vs veh, STRN3 / RFU, ADK / Fold change vs veh, ADK / RFU, RASSF2 / Fold change vs veh, RASSF2 / RFU, WIPF1 / Fold change vs veh, WIPF1 / RFU, LARP1B / Fold change vs veh, LARP1B / RFU, RASA1 / Fold change vs veh, RASA1 / RFU, RB1 / Fold change vs veh, RB1 / RFU, PPFIA1 / Fold change vs veh, PPFIA1 / RFU, MAT2A / Fold change vs veh, MAT2A / RFU, CCT5 / Fold change vs veh, CCT5 / RFU, WDR92 / Fold change vs veh, WDR92 / RFU, CUX1 / Fold change vs veh, CUX1 / RFU, TTC7A / Fold change vs veh, TTC7A / RFU, TMEM135 / Fold change vs veh, TMEM135 / RFU, DEPTOR / Fold change vs veh, DEPTOR / RFU, CPM / Fold change vs veh, CPM / RFU, DNAJB6 / Fold change vs veh, DNAJB6 / RFU, CACNA2D3 / Fold change vs veh, CACNA2D3 / RFU, DTX4 / Fold change vs veh, DTX4 / RFU, TFCP2 / Fold change vs veh, TFCP2 / RFU, GMCL1 /// GMCL1P1 / Fold change vs veh, GMCL1 /// GMCL1P1 / RFU, AEBP2 / Fold change vs veh, AEBP2 / RFU, SNHG1 /// SNORD22 /// SNORD25 /// SNORD26 /// SNORD27 /// SNORD28 /// SNORD29 /// SNORD31 / Fold change vs veh, SNHG1 /// SNORD22 /// SNORD25 /// SNORD26 /// SNORD27 /// SNORD28 /// SNORD29 /// SNORD31 / Fold change (Aza/veh), C12orf56 (ProbeSet 11735607_a_at) / Fold change (ACY-1035/veh), C12orf56 (ProbeSet 11735607_a_at) / Fold change (Aza/veh), FGFR1OP (ProbeSet 11751329_s_at) / Fold change (ACY-1035/veh), FGFR1OP (ProbeSet 11751329_s_at) / Fold change (Aza/veh), VPS36 (ProbeSet 11739960_a_at) / Fold change (ACY-1035/veh), VPS36 (ProbeSet 11739960_a_at) / RFU SYPL1 (11715823_x_at) / Fold change /veh SYPL1 (11715823_x_at) / RFU IGFBP7 (11715501_s_at) / Fold change /veh IGFBP7 (11715501_s_at) / RFU REEP3 (11722064_at) / Fold change /veh REEP3 (11722064_at) / RFU IGLL1 (11728026_x_at) / Fold change /veh IGLL1 (11728026_x_at): dose or concentration left out as unconfirmed
Details: MV-4-11 cells, 48 hours

Compound: Nc1ncn([C@@H]2O[C@H](CO)[C@@H](O)[C@H]2O)c(=O)n1 [azacitidine]
- RFU MBOAT4 (11741988_at): 11.61 RFU
